Tests used:
[1] = type: physicochemical
Experimental: Concretely, 10 ml of a pure solvent or a solubiliser mixture were stirred in a beaker at ambient temperature. An amount of 2 mg phenolic or polyphenolic antioxidant was dispersed in the mixture and stirred. If the mixture became clear, the addition of phenolic or polyphenolic antioxidant was repeated until the mixture remained turbid even after stirring for 10 min. The maximum solubility was calculated as a percentage by mass (wt %) based on this experiment.

pig skin biopsies = test: Skin Antioxidative Potential (SAP), ESR with test radical TEMPO, ex vivo; type: cell-based; conditions: normalized to placebo-treated skin = 100%
Excerpt: Skin has intrinsic antioxidative protection thanks to the many enzymatic and non-enzymatic antioxidant systems present in the epidermis. A Skin Antioxidative Potential (SAP) can be measured by ESR spectroscopy using an active test radical that is reduced by the antioxidant systems inside the epidermis and dermis. The SAP value is a quantitative ex vivo determination of the antioxidant activity inside the epidermal and dermal layers of the skin.
In contrast, if the SAP value is below 100%, the topical treatment has diminished the skin's antioxidant defense system. Topical treatments with such negative effects on the skin antioxidant system are for example application of a chemical such as detergents or physical stress such as sun exposure.
The method entails applying the composition comprising the active substance (in this case resveratrol) to pig skin biopsies and testing the antioxidative power of the active substance. The antioxidative effect is dependent on whether the active substance is absorbed into the skin.
The measurements mere carried out as follows. Skin biopsies obtained from local slaughterhouse (pig skin, 6 month old animals, external lobe of the ears) were washed, the subdermal fat was removed and the skin was cut in 2×2 cm pieces.
Emulsions made as in example 2, with or without resveratrol, and with or without a solubiliser mix (dimethyl isosorbide, 1,5-pentanediol and panthenol) were applied on the epidermal layer of the biopsies. Skin pieces were placed on a filter paper saturated with the test radical (TEMPO, 2,2,6,6-tetramethyl piperidine-N-oxyl, Sigma-Aldrich, Munich, Germany). Skin biopsies of 4 cm were taken, placed in a special ESR tissue cell and ESR spectra of the test radical were recorded in a time-course experiment.
The amplitudes of the ESR spectra were plotted against time and the obtained kinetics were fitted using a mono-exponential first order decay algorithm.
The measurements were made after penetration times of between ten minutes and four hours. All values were normalized to the placebo-treated skin. […]

solubility in water [1]	Compound	SAP value (pig skin biopsies; penetration time 10 min) [%]	SAP value (pig skin biopsies; penetration time 30 min) [%]	SAP value (pig skin biopsies; penetration time 120 min) [%]
less than 0.01 wt %	Oc1ccc(/C=C/c2cc(O)cc(O)c2)cc1 [Resveratrol, 3,5,4′-trihydroxy-trans-stilbene]	–	–	–
–	tocopherol	114 ± 3	103 ± 6	100 ± 6

Reference: patent publication US20180339051A1, “COMPOSITION FOR TOPICAL APPLICATION COMPRISING DIMETHYL ISOSORBIDE, A POLYOL, AND A PHENOLIC OR POLYPHENOLIC ANTIOXIDANT” (MEDSKIN SOLUTIONS DR. SUWELACK AG, priority 2015, published 2018)
